# Measured values from article PMC9986876, “Prediction of Antileishmanial Compounds: General Model, Preparation, and Evaluation of 2-Acylpyrrole Derivatives” (Journal of Chemical Information and Modeling, 2022).
# Assays:
# [1] = molecular target: Leishmania donovani Promastigotes; design: method as in J. Med. Chem., ( 1991), 34, 9, 2798; settings: ChEMBL dataset, some flagged Outside typical range, ref J. Med. Chem., ( 1991), 34, 9, 2798, read-out: vij, Ki; cited from earlier work
# [2] = Cytotoxicity assay on macrophages (resazurin); format: cell-based, BALB/c mice; settings: mouse, J774 macrophages, values marked e correspond to 100 μg/mL, the higher dose tested
# Procedure: The assay was carried out as previously described.[30] J774 macrophages cell lines were seeded (5 × 10^4 cells/well) in 96-well flat-bottom microplates with 100 μL of RPMI 1640 medium. The cells were allowed to attach for 24 h at 37 °C and 5% CO2, and the medium was replaced by different concentrations of the compounds in 200 μL of medium and exposed for another 24 h. Growth controls and signal-to-noise were also included. Afterward, a volume of 20 μL of 2.5 mM resazurin solution was added, and plates were returned to the incubator for another 3 h to evaluate cell viability. The reduction of resazurin was determined by fluorometry as in the promastigote assay. Each concentration was assayed three times.
# [3] = test system: L. amazonensis amastigotes; experiment: In vitro intracellular amastigote susceptibility assay in J774 macrophages; format: cell-based; settings: for IC50: Leishmania amazonensis, L. amazonensis intracellular amastigotes in J774, 48 h, N/A = not active at 100 μg/mL
# Procedure: (§1) The following species of Leishmania were used: L. donovani (MHOM/IN/80/DD8) was purchased (ATCC, USA) and L. amazonensis (MHOM/Br/79/Maria) was kindly provided by Prof. Alfredo Toraño (Instituto de Salud Carlos III, Madrid). Promastigotes were cultured in Schneider’s insect medium supplemented with 10% heat-inactivated fetal bovine serum (FBS) and 1000 U/L of penicillin plus 100 mg/L of streptomycin in 25 mL culture flasks at 26 °C. The assay was carried out as previously described.[29] Briefly, 5 × 10^4 J774 macrophages and stationary promastigotes in a 1:5 ratio were seeded in each well of a microtiter plate, suspended in 200 μL of culture medium, and incubated for 24 h at 33 °C in a 5% CO2 chamber. After this first incubation, the temperature was increased up to 37 °C for another 24 h. Thereafter, cells were washed several times in culture medium by centrifugation at 1.500g for 5 min in order to remove free non-internalized promastigotes. Finally, the supernatant was replaced by 200 μL/well of culture medium containing 2-fold serial dilutions of the test compounds as in promastigotes assay. Growth control and signal-to-noise were also included. Following incubation for 48 h at 37 °C and 5% CO2, the culture medium was replaced by 200 μL/well of the lysis solution (RPMI-1640 with 0.048% HEPES and 0.01% SDS) and incubated at room temperature for 20 min. Thereafter, the plates were centrifuged at 3.500g for 5 min and the lysis solution was replaced by 200 μL/well of Schneider’s insect medium. The culture plates were then incubated at 26 °C for another 4 days to allow transformation of viable amastigotes into promastigotes and proliferation. Afterward, 20 μL/well of 2.5 mM resazurin was added and incubated for another 3 h. Finally, fluorescence emission was measured and IC50 was estimated as described above. All tests were carried out in triplicate. Miltefosine (Sigma-Merck, Madrid, Spain) was used as the reference drug and was evaluated under the same conditions. The IC50 and SI were calculated as in the previous section.
# [4] = test system: L. donovani amastigotes; experiment: as above; format: cell-based; settings: for IC50: Leishmania donovani, L. donovani intracellular amastigotes in J774, 48 h, N/A = not active at 100 μg/mL
# Procedure: as §1, with “Miltefosine (Sigma-Merck, Madrid, Spain) was used as the reference drug and was evaluated under the same conditions.” left out
# [5] = test system: L. amazonensis (MHOM/Br/79/Maria) promastigotes; experiment: In vitro promastigote susceptibility assay (resazurin); format: cell-based; settings: for SI (selectivity index, SI = CC50/IC50): CC50 J774 / IC50 L. amazonensis promastigotes; for IC50: Leishmania amazonensis, L. amazonensis promastigotes, 48 h at 26 °C, triplicate, N/A = not active at 100 μg/mL
# Procedure: (§2) The following species of Leishmania were used: L. donovani (MHOM/IN/80/DD8) was purchased (ATCC, USA) and L. amazonensis (MHOM/Br/79/Maria) was kindly provided by Prof. Alfredo Toraño (Instituto de Salud Carlos III, Madrid). Promastigotes were cultured in Schneider’s insect medium supplemented with 10% heat-inactivated fetal bovine serum (FBS) and 1000 U/L of penicillin plus 100 mg/L of streptomycin in 25 mL culture flasks at 26 °C. […] New samples of the compounds have been prepared according to the protocol described above, and subsequently solutions of the chemical compound to be assayed have been dissolved in DMSO at 50 mg/mL. […] Growth control and signal-to-noise control were also included. The final solvent (DMSO) concentrations never exceeded 0.5% (v/v) warranting no effect on parasite proliferation or morphology. After 48 h at 26 °C, 20 μL of a 2.5 mM resazurin solution was added to each well and the plates were returned to the incubator for another 3 h. […] Growth inhibition (%) was calculated by 100 – [(RFU treated wells – RFU signal-to-noise)/(RFU untreated – RFU signal-to-noise) × 100]. All tests were carried out in triplicate. Miltefosine (Sigma-Merck, Madrid, Spain) was used as the reference drug and was evaluated under the same conditions. […] The selectivity index (SI) was calculated as the ratio between cytotoxicity (CC50) and activity against parasites (IC50).
# [6] = test system: L. donovani (MHOM/IN/80/DD8) promastigotes; experiment: as above; format: cell-based; settings: for SI (selectivity index, SI = CC50/IC50): CC50 J774 / IC50 L. donovani promastigotes; for IC50: Leishmania donovani, L. donovani promastigotes, 48 h at 26 °C, triplicate, N/A = not active at 100 μg/mL
# Procedure: as §2
# [7] = macrophages J774, 24 h exposure, Table 2
# [8] = macrophages J774, Table 3 (amastigote assay table)
IC50 [3],IC50 [4],IC50 [5],IC50 [6],SMILES,Ki [1],"CC50 at 24 h [2, 7]","CC50 at 24 h [2, 8]","SI (selectivity index, SI = CC50/IC50) [5]","SI (selectivity index, SI = CC50/IC50) [6]","SI (selectivity index, SI = CC50/IC50) ([3]; CC50 J774 / IC50 L. amazonensis amastigotes)","SI (selectivity index, SI = CC50/IC50) ([4]; CC50 J774 / IC50 L. donovani amastigotes)"
,,,,Nc1ncnc2c1ncn2C1O[C@H](C[C@@H](N)CC[C@@H](N)C(=O)O)[C@@H](O)[C@H]1O (stereo partly drawn) [CHEMBL608870],49 µM,,,,,,
,,,,NCCC(CN)C[C@H]1OC(n2cnc3c(N)ncnc32)[C@H](O)[C@@H]1O (stereo partly drawn) [CHEMBL611866],1120 µM,,,,,,
60.6 ± 7.88 µM,> 100 µg/mL,30.9 ± 3.11 µM,221 ± 36.9 µM,Cc1cccnc1-n1cccc1C(=O)c1ccc(C(C)(C)C)cc1 [5bc],,> 314 µM,> 314 µM,>10.17,>1.42,,
,,,,C=CCCCC(N)C[C@H]1OC(n2cnc3c(N)ncnc32)[C@H](O)[C@@H]1O (stereo partly drawn) [CHEMBL607696],877 µM,,,,,,
153 ± 9.11 µM,211 ± 30.3 µM,67.2 ± 4.94 µM,118 ± 25.8 µM,O=C(c1ccc(Br)cc1)c1cccn1-c1ncccn1 [5af],,> 305 µM,> 305 µM,>4.54,>2.58,>1.99,>1.45
